In paper PMC3257383 (Journal of Medicinal Chemistry, 2011):

Columns and labels:
Purified CYP3A4 = Purified CYP3A4 (Homo sapiens, UniProt P08684, S18F); conditions: for Soret peak / Soret trough: human, 20 µM, pH 7.4
CYP3A4 baculosomes = CYP3A4 baculosomes (Homo sapiens, UniProt P08684); test: Saturation kinetics of metabolism by CYP3A4; type: in vitro ADME

Row | Compound | Binding mode (Purified CYP3A4) | Soret peak (Purified CYP3A4) [nm] | Soret trough (Purified CYP3A4) [nm] | kcat smaller than type I binding compound 2 (CYP3A4 baculosomes; compared with compound 2 of series 1) | kcat larger than type I binding compound 10 (CYP3A4 baculosomes; compared with compound 10 of series 3) [times] | kcat higher than type I binding compounds 3 and 11 (CYP3A4 baculosomes; compared with compounds 3 and 11) | rate of benzylic hydroxylation compared to O-demethylation of compound 5 (CYP3A4 baculosomes; type II binding compounds, relative to aromatic hydroxylation in ring A)
1 | CN(C)c1ccc(NC(=O)c2cc(-c3ccccc3)nc3ccccc23)cc1 [Compound 2] | Type I | 385 | 416 | – | – | – | –
2 | O=C(Nc1ccccc1)c1cc(-c2ccccc2)nc2ccccc12 [Compound 3] | Type I | 392 | 417 | – | – | – | –
3 | Cc1ccc(NC(=O)c2cc(-c3ccccc3)nc3ccccc23)cc1 [Compound 4] | Type I | 393 | 417 | – | – | – | –
4 | COc1ccc(NC(=O)c2cc(-c3ccncc3)nc3ccccc23)cc1 [Compound 5] | Type II | 427 | 391 | – | – | – | –
5 | CN(C)c1ccc(NC(=O)c2cc(-c3ccncc3)nc3ccccc23)cc1 [Compound 6] | Type II ^b | 427 | 392 | more than 2 fold | 1.2 | – | –
6 | O=C(Nc1ccccc1)c1cc(-c2ccncc2)nc2ccccc12 [Compound 7] | Type II | 427 | 394 | – | – | about 1.5 times | –
7 | Cc1ccc(NC(=O)c2cc(-c3ccncc3)nc3ccccc23)cc1 [Compound 8] | Type II | 428 | 392 | – | – | – | about three fold faster
8 | COc1ccc(NC(=O)c2cc(-c3ccccn3)nc3ccccc23)cc1 [Compound 9] | Type I | 388 | 417 | – | – | – | –
9 | CN(C)c1ccc(NC(=O)c2cc(-c3ccccn3)nc3ccccc23)cc1 [Compound 10] | Type I | 386 | 416 | – | – | – | –
10 | O=C(Nc1ccccc1)c1cc(-c2ccccn2)nc2ccccc12 [Compound 11] | Type I | 389 | 418 | – | – | – | –
11 | Cc1ccc(NC(=O)c2cc(-c3ccccn3)nc3ccccc23)cc1 [Compound 12] | Type I | 391 | 416 | – | – | – | –
12 | COc1ccc(NC(=O)c2cc(-c3cnccn3)nc3ccccc23)cc1 [Compound 13] | Type II | 423 | 396 | – | – | – | –
13 | CN(C)c1ccc(NC(=O)c2cc(-c3cnccn3)nc3ccccc23)cc1 [Compound 14] | Type II | 425 | 393 | – | – | – | –
14 | O=C(Nc1ccccc1)c1cc(-c2cnccn2)nc2ccccc12 [Compound 15] | Type II | 427 | 397 | – | – | – | –
15 | Cc1ccc(NC(=O)c2cc(-c3cnccn3)nc3ccccc23)cc1 [Compound 16] | Type II | 422 | 391 | – | – | – | –
16 | COc1ccc(NC(=O)c2cc(-c3ccncn3)nc3ccccc23)cc1 [Compound 17] | Type II | 425 | 391 | – | – | – | –
17 | CN(C)c1ccc(NC(=O)c2cc(-c3ccncn3)nc3ccccc23)cc1 [Compound 18] | Type II | 422 | 392 | – | – | – | –
18 | O=C(Nc1ccccc1)c1cc(-c2ccncn2)nc2ccccc12 [Compound 19] | Type II | 424 | 390 | – | – | – | –
19 | Cc1ccc(NC(=O)c2cc(-c3ccncn3)nc3ccccc23)cc1 [Compound 20] | Type II | 425 | 390 | – | – | – | –
